Results as given in patent publication US11001562B2, “Near-infrared fluorescent nerve contrast agents and methods of use thereof” (Beth Israel Deaconess Medical Center, priority 2013, dated 2021).
Entries after “also recorded” stand apart in the source; their conditions may differ.

Tests used:
[1] = test system: rat brachial plexus and sciatic nerves; test: In vivo nerve-specificity screening with FLARE imaging; conditions: for nerve-specific fluorescence signal in vivo: SD rats, 2 mg/kg (1 μmol) iv, 4 h after injection, brachial plexus and sciatic nerve
Description: The dual-NIR channel FLARE^a imaging system has been described in detail previously (26-28). In this study, a 670 nm excitation was used at a fluence rate of 4 mW/cm^2, with white light (400-650 nm) at 40,000 1×. Color and NIR fluorescence images were acquired simultaneously with custom software at rates up to 15 Hz over a 15 cm diameter field of view. A pseudo-colored lime green was used for NIR fluorescence in the color-NIR merged images. The imaging system was positioned at a distance of 18 inches from the surgical field.
Initial in vivo screening occurred in rats based on our previous study of BMB (Supplementary Methods) (25). For kinetic and dose-response studies, 50-400 nmol (0.8-6.3 mg/kg) of Oxazine 4 was injected intravenously into mice and measurements taken over 24 h. Control images were acquired prior to injecting NIR fluorophores. The fluorescence signal in nervous tissues and signal-to-background ratio (SBR) compared to neighboring muscle (Mu) were obtained over the period of imaging. For the large animal study, the optimal dose found in mice (200-400 nmol per mouse) was used in pigs by scaling to body surface area (29, 30).
Sprague-Dawley (SD) male rats weighing 250-300 g were purchased from Charles River Laboratories (Wilmington, Mass.). BMB, Oxazine 1, Oxazine 4, Oxazine 170, Oxazine 750, and Rhodamine 800 were initially screened to investigate nerve specificity in rats. For the initial screening, we administered a relatively high dose (2 mg/kg; 1 μmol) of each fluorophore intravenously. 4 h after injection, brachial plexus (BP) and sciatic nerve (SN) were imaged using the intraoperative FLARE^a system for in vivo nerve-specific fluorophores screening.

[2] = test system: pig sciatic nerve tissue cross sections; test: Ex vivo nerve-specific fluorophore screening on nerve tissue sections; conditions: for nerve-specific fluorescence signal in cross-sectioned nerve: 20 min incubation; for adipose uptake: both ex vivo and in vivo
Procedure: Phase contrast image (top) and fluorescence image (bottom) of nerve tissue sections incubated with 100 μM of test fluorophores are shown. Nerve-specific fluorescence intensity was determined using staining of pig sciatic nerve cut in cross section. Nerve tissue sections were incubated in 30% FBS solutions without (negative control, autofluorescence only) and with each fluorophore. As a positive control, previously reported nerve-specific BMB was used. Shown are phase contrast image (top) and fluorescence image (bottom) of nerve tissue sections incubated with 100 μM of each fluorophore. The control autofluorescence images were taken with equivalent exposure time and normalization. Arrowheads indicate fluorescence signals in nerve bundles. Ad=adipose tissue. Scale bars=200 μm. The SBR of each nerve relative to the neighboring adipose tissue was quantified and labeled as—, SBR<1; +, SBR=1−2; and ++, SBR >2.
Sciatic nerves from female Yorkshire pigs were harvested, fixed in 2% paraformaldehyde (PFA), and flash frozen in optimal cutting temperature (OCT) compound using liquid nitrogen. Nerve tissues were cut in cross section using a cryostat at […] thickness onto positively charge glass slides. Tissue sections were washed once with phosphate buffered saline (PBS) for 2 min to remove residual OCT. The tissue was then fixed to the slide with 2% PFA for 15 min, followed by washing with PBS (3×5 min). A formulation was previously developed for intravenous (IV) administration and was used in the current study to incubate the fluorophores with the nerve tissue (25). All fluorophores were mixed from the 100 mM stock solution into the IV formulation at 100 µM and incubated with the washed nerve tissue sections at room temperature for 20 min. Additional IV formulation not containing fluorophore was mixed and used to wash each nerve section twice (5 min per wash) following incubation with the formulated fluorophore. The nerve section was then washed an additional 2 times with PBS (5 min per each), after which coverslips were mounted using Fluoromount-G (Southern Biotech, Birmingham, Ala.).
NIR fluorescence microscopy for ex vivo nerve tissue slides was performed on a Nikon Eclipse TE300 microscope system as previously described (12, 19, 25). The microscope was equipped with a 100 W mercury light source, NIR-compatible optics, and a NIR-compatible 10× Plan Fluor objective lens and a 100× Plan Apo oil immersion objective lens (Nikon, Melville, N.Y.). Images were acquired on an Orca-AG (Hamamatsu, Bridgewater, N.J.). Image acquisition and analysis was performed using IPLab software (Scanalytics, Fairfax, Va.). A custom filter set (Chroma Technology Corporation, Brattleboro, Vt.) composed of a 650±22 nm excitation filter, a 675 nm dichroic mirror, and an 710±25 nm emission filter were used to detect Oxazine derivatives and Rhodamine 800 signals in the nerve tissue slides. For BMB, a mercury light source was passed through a 360±25 nm BP excitation filter, a 400 nm LP beam splitter, and a 550±50 nm emission filter.

[3] = Optical property measurements (absorbance and fluorescence spectra); assay type: physicochemical; conditions: 100% FBS with 50 mM HEPES, pH 7.4, 37° C.
Procedure: Absorbance and fluorescence spectra were obtained at a concentration of […] in 100% FBS supplemented with 50 mM HEPES, pH 7.4. B) Optical properties of Oxazine 4 were measured in PBS (pH 7.4), FBS (pH 7.4), MeOH, and DMSO.
Oxazine derivatives were obtained from Fisher Scientific Inc. (Pittsburgh, Pa.) or Sigma-Aldrich (Saint Louis, Mo.), and BMB was synthesized as described previously (25). Optical measurements were performed at 37° C. in phosphate-buffered saline (PBS), pH 7.4 or 100% fetal bovine serum (FBS) buffered with 50 mM HEPES, pH 7.4. Absorbance and fluorescence emission spectra were measured using fiber optic HR2000 absorbance (200-1100 nm) and USB2000FL fluorescence (350-1000 nm) spectrometers (Ocean Optics, Dunedin, Fla.). NIR excitation was provided by a 532 nm green laser pointer (Opcom Inc., Xiamen, China) set to 5 mW and coupled through a […] core diameter, NA 0.22 fiber (Fiberguide Industries, Stirling, N.J.). In silico calculation of the partition coefficient (log D at pH 7.4) was calculated using Marvin and J Chem calculator plugins (ChemAxon, Budapest, Hungary). Chemical similarities were calculated by Instant J Chem 6.04 using “Chemical Hashed Fingerprint” with the Normalized Euclidean dissimilarity screening configuration (ChemAxon).
All optical measurements were performed at 37° C. in phosphate-buffered saline (PBS), pH 7.4, 100% fetal bovine serum (FBS) buffered with 50 mM HEPES, pH 7.4, methanol (MeOH), or dimethyl sulfoxide (DMSO). Absorbance and fluorescence emission spectra of the series of NIR fluorophores were measured using fiber optic HR2000 absorbance (200-1100 nm) and USB2000FL fluorescence (350-1000 nm) spectrometers (Ocean Optics, Dunedin, Fla.). Excitation light was provided by a 532 nm green laser pointer (Opcom Inc., Xiamen, China) set to 5 mW and coupled through a 300 μm core diameter, NA 0.22 fiber (Fiberguide Industries, Stirling, N.J.). In silico calculation of the partition coefficient (log D at pH 7.4) was calculated using Marvin and J Chem calculator plugins (ChemAxon, Budapest, Hungary).

[4] = 100 μM fluorophore, pig sciatic nerve sections
[5] = comparison of structures in discussion

Structure (SMILES)	uptake in / targeting of nerve ([1]; summary statement related to log D)	nerve-specific fluorescence signal in cross-sectioned nerve [2, 4]	Abs (peak absorbance) [3] [nm]	Em (peak emission) [3] [nm]	λ (extinction coefficient) [3]	nerve-specific fluorescence signal in vivo [1]	adipose signal (discussion summary) [1, 5]	nerve signal (discussion summary) [1, 5]	adipose fluorescence signal [2, 4]	SBR of nerve relative to neighboring adipose tissue [2, 4]	adipose uptake [2]
N#CC1=c2cc3c4c(c2Oc2c1cc1c5c2CCCN5CCC1)CCC[N+]=4CCC3 [Rhodamine 800]	low and low targeting affinity to the nerve	strong fluorescence signal throughout the cross-sectioned nerve	697	710	68,000 M^−1cm^−1						
CCN(CC)c1ccc2nc3ccc(=[N+](CC)CC)cc-3oc2c1 [Oxazine 1]		did not show any nerve-specific fluorescence signal	655	670	196,000 M^−1cm^−1	weak signal in the vicinity of nerve	high adipose	low nerve signal	adipose-specific fluorescence signal only		
COc1cc(/C=C/c2ccc(N)cc2)ccc1/C=C/c1ccc(N)cc1 [BMB, reference compound]		relatively high fluorescence signal in the nerve	397	498	52,800 M^−1cm^−1	nerve highlighting fluorophores			even higher than the target signal	< 1	
CC/N=c1/cc2oc3cc(NCC)c(C)cc3nc-2c2ccccc12 [Oxazine 170]		weak nerve-specific fluorescence signal	625	650	69,000 M^−1cm^−1	nerve highlighting fluorophores					strong adipose uptake; also recorded: high accumulation in adipose tissue
CC/N=c1/cc2oc3c4c5c(cc3nc-2c2ccccc12)CCCN5CCC4 [Oxazine 750]		strong fluorescence signal throughout the cross-sectioned nerve	676	684	44,000 M^−1cm^−1						strong adipose uptake
